According to ChEMBL document CHEMBL3351259, “Semi-synthesis of biologically active nisin hybrids composed of the native lanthionine ABC-fragment and a cross-stapled synthetic DE-fragment” (2014):
Converted amounts (≈) assume the structure as drawn. The source made the active and inactive calls. The calls are words filed in the database; no cut-off is given here.

How the values were obtained:
[1] = Induction of membrane leakage in large unilamellar vesicles composed of 1,2-dioleoyl-sn-glycero-3-phosphocholine and 0.2% lipid II […] at 5 uM by carboxyfluorescein based fluorescence spectroscopy; assay type: functional
[2] = Binding affinity affinity to lipid II (unknown origin) by nisin competitive assay
Bacillus subtilis = experiment: Antimicrobial activity against Bacillus subtilis assessed as inhibition of bacterial growth after 24 hrs by broth micro-dilution assay; assay type: functional

Activity [2]	MIC (Bacillus subtilis)	Structure (SMILES)	Activity [1]
Active		C=C1NC(=O)[C@H]([C@@H](C)CC)NC(=O)[C@@H](NC(=O)/C(=C/C)NC(=O)[C@@H](N)[C@@H](C)CC)CSC[C@@H](C(=O)N[C@@H]2C(=O)N3CCC[C@H]3C(=O)NCC(=O)N[C@H](C(=O)N[C@@H](CCCCN)C(=O)N[C@@H]3C(=O)NCC(=O)N[C@@H](C)C(=O)N[C@@H](CC(C)C)C(=O)N[C@@H](CCSC)C(=O)NCC(=O)N[C@H](C(=O)N[C@@H](CC(N)=O)C(=O)NCc4cn([C@@H](CCCCN)C(=O)N[C@@H]5C/C=C/C[C@@H]6NC(=O)[C@@H](C/C=C/C[C@@H](C(=O)OC)NC(=O)[C@H](CC(N)=O)NC6=O)NC(=O)[C@H](C)NC5=O)nn4)CS[C@H]3C)CS[C@H]2C)NC(=O)[C@H](CC(C)C)NC1=O	inactive
	4.07 µM (≈ 11.4 µg/mL)	C=C1NC(=O)[C@H]([C@@H](C)CC)NC(=O)[C@@H](NC(=O)/C(=C/C)NC(=O)[C@@H](N)[C@@H](C)CC)CSC[C@@H](C(=O)N[C@@H]2C(=O)N3CCC[C@H]3C(=O)NCC(=O)N[C@H](C(=O)N[C@@H](CCCCN)C(=O)N[C@@H]3C(=O)NCC(=O)N[C@@H](C)C(=O)N[C@@H](CC(C)C)C(=O)N[C@@H](CCSC)C(=O)NCC(=O)N[C@H](C(=O)N[C@@H](CC(N)=O)C(=O)N[C@@H](CC(C)C)c4cn([C@@H](CCCCN)C(=O)N[C@@H]5C/C=C/C[C@@H]6NC(=O)[C@@H](C/C=C/C[C@@H](C(=O)N[C@@H](CCCCC)C(=O)NC)NC(=O)[C@H](CC(N)=O)NC6=O)NC(=O)[C@H](C)NC5=O)nn4)CS[C@H]3C)CS[C@H]2C)NC(=O)[C@H](CC(C)C)NC1=O	inactive
Active	6.2 µM (≈ 11.7 µg/mL)	C=C1NC(=O)[C@H]([C@@H](C)CC)NC(=O)[C@@H](NC(=O)/C(=C/C)NC(=O)[C@@H](N)[C@@H](C)CC)CSC[C@@H](C(=O)N[C@@H]2C(=O)N3CCC[C@H]3C(=O)NCC(=O)N[C@H](C(=O)N[C@@H](CCCCN)C(=O)N[C@@H]3C(=O)NCC(=O)N[C@@H](C)C(=O)N[C@@H](CC(C)C)C(=O)N[C@@H](CCSC)C(=O)NCC(=O)N[C@H](C(=O)N[C@@H](CC(N)=O)C(=O)O)CS[C@H]3C)CS[C@H]2C)NC(=O)[C@H](CC(C)C)NC1=O	inactive
	167 µM (≈ 192 µg/mL)	C=C1NC(=O)[C@H]([C@@H](C)CC)NC(=O)[C@@H](NC(=O)/C(=C/C)NC(=O)[C@@H](N)[C@@H](C)CC)CSC[C@@H](C(=O)N[C@@H]2C(=O)N3CCC[C@H]3C(=O)NCC(=O)N[C@H](C(=O)N[C@@H](CCCCN)C(N)=O)CS[C@H]2C)NC(=O)[C@H](CC(C)C)NC1=O	inactive
